Literature values as cited in US20250241904A1, “COMPOSITION AND METHOD FOR PREVENTION AND TREATMENT OF CUTANEOUS RADIATION INJURY” (Rythera Therapeutics, Inc., priority 2022, published 2025).

Tests used:
[1] = system: radiation proctopathy or proctitis; conditions: in vivo
mice = conditions: topical

Molecule | treating radiation proctopathy or proctitis [1] | further results
O=C1O[C@H]([C@@H](O)CO)C(O)=C1O [Vitamin C] |  | results of irradiated breast tissue (radiation dermatitis; in vivo): without improvement
Sucralfate | ineffective | 
CN[C@H]1CC[C@@H](c2ccc(Cl)c(Cl)c2)c2ccccc21 [sertraline] |  | itch-evoked scratching (mice): significant itch-evoked scratching
NCCCNCCSP(=O)(O)O [amifostine] |  | dermato-cytoprotective effects (radiation dermatitis; retrospective analysis): significant dermato-cytoprotective effects
O=[N+]([O-])OCC(CO[N+](=O)[O-])O[N+](=O)[O-] [nitroglycerin] | ineffective | 
Nc1ccc(O)c(C(=O)O)c1 [5-ASA, 5-aminosalicylic acid] | unsuccessful | 
